The record followed here is ChEMBL document CHEMBL1287715, “Discovery of N-benzyl-N'-(4-pipyridinyl)urea CCR5 antagonists as anti-HIV-1 agents (I): optimization of the amine portion” (Bioorg Med Chem Lett, 2010).

Each structure is given as a SMILES string.

A short description of data set [1]: Cytotoxicity against peripheral blood lymphocyte cells upto 1 uM by celltiter glo assay. Conditions: human. The class given is cell-based.
The subject of data set [2] is HOS. Put plainly: Cytotoxicity against HOS cells upto 1 uM by celltiter glo assay. The class given is cell-based. The conditions noted are these: human.

Regarding `C=CCN(C(=O)OCc1ccc(C(F)(F)F)cc1)C1CCN(CCC2(c3cccc(F)c3)CCN(C(=O)c3cc(S(=O)(=O)NC(C)(C)C)c(F)cc3Cl)CC2)CC1`, the Activity result in data set [1] and in data set [2] was “Non-toxic” throughout.
As for `C=CCN(C(=O)OCc1ccc(F)cc1)C1CCN(CCC2(c3cccc(F)c3)CCN(C(=O)c3cc(S(=O)(=O)NC(C)(C)C)c(F)cc3Cl)CC2)CC1`, the Activity result in data set [1] and in data set [2] was “Non-toxic” in each case.
In the case of `C=CCN(C(=O)OCc1ccc(C(=O)OC)cc1)C1CCN(CCC2(c3cccc(F)c3)CCN(C(=O)c3cc(S(=O)(=O)NC(C)(C)C)c(F)cc3Cl)CC2)CC1`, the Activity entry in data set [1] and in data set [2] was “Non-toxic” in each case.
Consider `C=CCN(C(=O)OCc1ccc(S(C)(=O)=O)cc1)C1CCN(CCC2(c3cccc(F)c3)CCN(C(=O)c3cc(S(=O)(=O)NC(C)(C)C)c(F)cc3Cl)CC2)CC1`, for which the Activity entry in data set [1] and in data set [2] was “Non-toxic” in each case.
On to `C=CCN(C(=O)OCc1ccc(C#N)cc1)C1CCN(CCC2(c3cccc(F)c3)CCN(C(=O)c3cc(S(=O)(=O)NC(C)(C)C)c(F)cc3Cl)CC2)CC1`, for which the Activity entry in data set [1] and in data set [2] was “Non-toxic” throughout.
In the case of `C=CCN(C(=O)OCc1ccc(OC(F)(F)F)cc1)C1CCN(CCC2(c3cccc(F)c3)CCN(C(=O)c3cc(S(=O)(=O)NC(C)(C)C)c(F)cc3Cl)CC2)CC1`, the Activity entry in data set [1] and in data set [2] was “Non-toxic” in each case.
On to `C=CCN(C(=O)Nc1ccc(C(F)(F)F)cc1)C1CCN(CCC2(c3cccc(F)c3)CCN(C(=O)c3cc(S(=O)(=O)NC(C)(C)C)c(F)cc3Cl)CC2)CC1`, for which the Activity entry in data set [1] and in data set [2] was “Non-toxic” each time.
For `C=CCN(C(=O)NCc1ccc(C(F)(F)F)cc1)C1CCN(CCC2(c3cccc(F)c3)CCN(C(=O)c3cc(S(=O)(=O)NC(C)(C)C)c(F)cc3Cl)CC2)CC1`, the Activity entry in data set [1] and in data set [2] was “Non-toxic” in each case.
In the case of `C=CCN(C(=O)Nc1ccc(F)cc1)C1CCN(CCC2(c3cccc(F)c3)CCN(C(=O)c3cc(S(=O)(=O)NC(C)(C)C)c(F)cc3Cl)CC2)CC1`, the Activity result in data set [1] and in data set [2] was “Non-toxic” throughout.
With `C=CCN(C(=O)NCc1ccc(F)cc1)C1CCN(CCC2(c3cccc(F)c3)CCN(C(=O)c3cc(S(=O)(=O)NC(C)(C)C)c(F)cc3Cl)CC2)CC1`, the Activity result in data set [1] and in data set [2] was “Non-toxic” in each case.
Turning to `C=CCN(C(=O)Nc1ccc(C#N)cc1)C1CCN(CCC2(c3cccc(F)c3)CCN(C(=O)c3cc(S(=O)(=O)NC(C)(C)C)c(F)cc3Cl)CC2)CC1`, the Activity entry in data set [1] and in data set [2] was “Non-toxic” in each case.
With `C=CCN(C(=O)NCc1ccc(C#N)cc1)C1CCN(CCC2(c3cccc(F)c3)CCN(C(=O)c3cc(S(=O)(=O)NC(C)(C)C)c(F)cc3Cl)CC2)CC1`, the Activity result in data set [1] and in data set [2] was “Non-toxic” each time.
Regarding `C=CCN(C(=O)Nc1ccc(S(C)(=O)=O)cc1)C1CCN(CCC2(c3cccc(F)c3)CCN(C(=O)c3cc(S(=O)(=O)NC(C)(C)C)c(F)cc3Cl)CC2)CC1`, the Activity result in data set [1] and in data set [2] was “Non-toxic” each time.
With `C=CCN(C(=O)NCc1ccc(C(=O)OC)cc1)C1CCN(CCC2(c3cccc(F)c3)CCN(C(=O)c3cc(S(=O)(=O)NC(C)(C)C)c(F)cc3Cl)CC2)CC1`, the Activity entry in data set [1] and in data set [2] was “Non-toxic” each time.
Turning to `C=CCN(C(=O)NCc1ccc(C(N)=O)cc1)C1CCN(CCC2(c3cccc(F)c3)CCN(C(=O)c3cc(S(=O)(=O)NC(C)(C)C)c(F)cc3Cl)CC2)CC1`, the Activity entry in data set [1] and in data set [2] was “Non-toxic” in each case.
`C=CCN(C(=O)Nc1ccc(OC(C)=O)cc1)C1CCN(CCC2(c3cccc(F)c3)CCN(C(=O)c3cc(S(=O)(=O)NC(C)(C)C)c(F)cc3Cl)CC2)CC1`: the Activity result in data set [1] and in data set [2] was “Non-toxic” throughout.
Consider `C=CCN(C(=O)Cc1ccc(C(F)(F)F)cc1)C1CCN(CCC2(c3cccc(F)c3)CCN(C(=O)c3cc(S(=O)(=O)NC(C)(C)C)c(F)cc3Cl)CC2)CC1`, for which the Activity entry in data set [1] and in data set [2] was “Non-toxic” in each case.
As to `C=CCN(C(=O)Cc1ccc(F)cc1)C1CCN(CCC2(c3cccc(F)c3)CCN(C(=O)c3cc(S(=O)(=O)NC(C)(C)C)c(F)cc3Cl)CC2)CC1`, the Activity entry in data set [1] and in data set [2] was “Non-toxic” each time.
For `C=CCN(C(=O)Cc1ccc(S(C)(=O)=O)cc1)C1CCN(CCC2(c3cccc(F)c3)CCN(C(=O)c3cc(S(=O)(=O)NC(C)(C)C)c(F)cc3Cl)CC2)CC1`, the Activity entry in data set [1] and in data set [2] was “Non-toxic” in each case.
For the compound `C=CCN(C(=O)Cc1ccc(OC(F)(F)F)cc1)C1CCN(CCC2(c3cccc(F)c3)CCN(C(=O)c3cc(S(=O)(=O)NC(C)(C)C)c(F)cc3Cl)CC2)CC1`, the Activity entry in data set [1] and in data set [2] was “Non-toxic” throughout.
As for `C=CCN(C(=O)Cc1ccc(C(N)=O)cc1)C1CCN(CCC2(c3cccc(F)c3)CCN(C(=O)c3cc(S(=O)(=O)NC(C)(C)C)c(F)cc3Cl)CC2)CC1`, the Activity result in data set [1] and in data set [2] was “Non-toxic” each time.
